Reference: article PMC3454369, “Functional Redundancy of Class I Phosphoinositide 3-Kinase (PI3K) Isoforms in Signaling Growth Factor-Mediated Human Neutrophil Survival” (PLoS ONE, 2012)
Where two headings read alike, the source gives them in different places.

Assays:
[1] = test system: Peripheral blood neutrophils from exacerbating COPD patients; experiment: Ex vivo apoptosis of peripheral blood neutrophils from patients with exacerbation of COPD, annexin V/PI flow cytometry; format: cell-based, human; details: 20 hours culture; for Effect on reduced spontaneous apoptosis of neutrophils from exacerbating COPD patients: ex vivo, 20 min pre-incubation
[2] = test system: Human neutrophils; experiment: rhGM-CSF-modulated human neutrophil apoptosis, annexin V/PI flow cytometry; format: cell-based; details: rhGM-CSF 10 ng/ml; for Effect on rhGM-CSF-mediated human neutrophil survival: 20 h
Description: To examine the effects of small molecule PI3K inhibitors on rhGM-CSF (10 ng/ml) -modulated apoptosis, neutrophils (5×10^6/ml) were re-suspended in Iscove’s modified Dulbecco medium (IMDM) supplemented with 10% autologous serum, 100 U/mL penicillin and 100 µg/mL streptomycin in non-tissue culture treated flat bottom Falcon Flexiwell plates in a humidified 5% CO2 atmosphere at 37°C.

[3] = test system: PKB (Akt) phosphorylation; experiment: Western blot for rhGM-CSF-induced PKB (Akt Ser473) phosphorylation in human neutrophils; format: cell-based; details: 20 min pre-incubation, rhGM-CSF 10 ng/ml 10 min
Description: Neutrophils were suspended at 5×10^6/ml and 0.5 ml aliquots were pre-incubated for 20 minutes with PI3K inhibitors at 37°C prior to treatment with GM-CSF 10 ng/ml for 10 min. The cells were washed with ice-cold phosphate-buffered saline and pelleted and resuspended in 50 µl of cold lysis buffer (20 mM Tris-HCl (pH 7.5), 150 mM NaCl, 1 mM EDTA, 1 mM EGTA, 1% Triton X-100, 2.5 mM sodium pyrophosphate, 1 mM β-glycerophosphate, 1 mM PMSF, 1 mM sodium fluoride, 2 mM sodium orthovanadate, 10 µg/ml leupeptin, 10 µg/ml aprotinin) and incubated on ice for 10 minutes. The Triton-insoluble fraction was pelleted by centrifugation at 10 000 g for 15 min at 4°C. The protein concentration of the supernatant was determined using a colorimetric assay (bicinchoninic acid; BCA, BIO Rad Laboratories). SDS sample buffer was added to each neutrophil lysate and heated to 99°C for 5 min. 30 µg of protein/well was loaded on to each 10% SDS-polyacrylamide gel and subjected to electrophoresis at 150 V and transferred to a PVDF Immobilon membrane using a semi-dry transfer system at 130 mA for 90 minutes. The membrane was blocked for 1 hour with 5% non-fat dry milk in Tris-HCl buffered saline containing 0.1% (w/v) Tween 20 then immunoblotted overnight at 4°C in TBS-Tween-20 with primary monoclonal antibody to total Akt rabbit mAb or Phospho-Akt (Ser^473) rabbit mAb (Cell Signaling Technology 40585 and 9272 respectively) at a dilution of 1∶1000 in TBS-Tween 20 with 5% Bovine Serum Albumin. The membrane was washed three times in TBS-Tween 20 and incubated with ECL HRP-conjugated donkey anti-rabbit IgG (Fab2 fragment; GE Healthcare) at a dilution of 1∶10 000 in TBS-Tween 20 for 1 hour at room temperature. Membranes were developed using ECL-Plus kit (GE Healthcare).
Figure 5 Combined inhibition of all Class IA PI3Ks abrogates rhGM-CSF mediated PKB phosphorylation. […] Western blots from the experiments describe in B. above were scanned and analyzed using the Aida Image Analyzer 3.27 software package. […]

[4] = test system: Human neutrophils; experiment: rhGM-CSF-modulated human neutrophil apoptosis, annexin V/PI flow cytometry; format: cell-based; details: no GM-CSF; 20 h (also 6 h); LY294002 10 µM
[5] = test system: Human neutrophils; experiment: Morphologic analysis of human neutrophil apoptosis (light microscopy of cytospins); format: cell-based; details: rhGM-CSF 10 ng/ml, 20 h; for Cytoplasmic vacuolation of human neutrophils: light microscopy, PI-103 at 1 µM or above, LY294002 10 µM
[6] = test system: Murine peripheral blood neutrophils; details: for Effect on constitutive murine neutrophil apoptosis: no rmGM-CSF, 8 h and 4 h
[7] = molecular target: p110β (Homo sapiens, UniProt P42338); experiment: biochemical
[8] = molecular target: T1, p110δ (Homo sapiens, UniProt O00329); experiment: biochemical
[9] = molecular target: T2, p110α (Homo sapiens, UniProt P42336); experiment: biochemical
[10] = molecular target: T3, p110γ (Homo sapiens, UniProt P48736); experiment: biochemical
[11] = test system: Human neutrophils; experiment: fMLP-stimulated neutrophil oxidative burst (luminol/HRP chemiluminescence); format: cell-based; details: fMLP 100 nM
Description: All PI3K inhibitors were dissolved in dimethyl sulfoxide (DMSO) and stored at −20°C. […] The concentration response curves for NVS-PI3-3 and NVS-PI3-4 on the neutrophil respiratory burst generated as described in [10] are shown in Figure 2.  Figure 2 Effect of NVS-PI3-4 and NVS-PI3-3 on Neutrophil Oxidative Burst. Human neutrophils were suspended at 4×10^6/ml in HBSS at 37°C and either primed with TNFα 10 ng/ml or treated with vehicle control, prior to the addition of NVS-PI3-4 (A) or NVS-PI3-3 (B) at the indicated concentrations. […] Triangular symbols represent TNFα-primed cells; unprimed cells depicted by squares.

[12] = Cell accessibility of the inhibitor (footnote of Table 3); design: key: *: Poor cell accessibility; details: footnote mark at the inhibitor's name
[13] = test system: PI3K Class I isoforms; design: method as in PMID 20179189; details: competitive inhibition; cited from earlier work
[14] = molecular target: T2, p110α; details: in vitro kinase assay; data compiled from published work; cited from earlier work
[15] = molecular target: T1, p110δ; details: in vitro kinase assay; data compiled from published work; cited from earlier work
[16] = molecular target: T3, p110γ; details: in vitro kinase assay; data compiled from published work; cited from earlier work
[17] = inhibitor 3 µM, used individually
[18] = C57BL/6, rmGM-CSF 0.1 ng/ml, 8 hours
[19] = C57BL/6, rmGM-CSF 0.1 ng/ml, 8 hours, concentration-dependent
[20] = inhibitor 1 µM, used individually
[21] = TNFα 10 ng/ml-primed human neutrophils, read-out: Primed IC50, neutrophil oxidative burst
[22] = unprimed human neutrophils, read-out: Unprimed IC50, neutrophil oxidative burst

T1 sequence (O00329 whole entry, species assumed): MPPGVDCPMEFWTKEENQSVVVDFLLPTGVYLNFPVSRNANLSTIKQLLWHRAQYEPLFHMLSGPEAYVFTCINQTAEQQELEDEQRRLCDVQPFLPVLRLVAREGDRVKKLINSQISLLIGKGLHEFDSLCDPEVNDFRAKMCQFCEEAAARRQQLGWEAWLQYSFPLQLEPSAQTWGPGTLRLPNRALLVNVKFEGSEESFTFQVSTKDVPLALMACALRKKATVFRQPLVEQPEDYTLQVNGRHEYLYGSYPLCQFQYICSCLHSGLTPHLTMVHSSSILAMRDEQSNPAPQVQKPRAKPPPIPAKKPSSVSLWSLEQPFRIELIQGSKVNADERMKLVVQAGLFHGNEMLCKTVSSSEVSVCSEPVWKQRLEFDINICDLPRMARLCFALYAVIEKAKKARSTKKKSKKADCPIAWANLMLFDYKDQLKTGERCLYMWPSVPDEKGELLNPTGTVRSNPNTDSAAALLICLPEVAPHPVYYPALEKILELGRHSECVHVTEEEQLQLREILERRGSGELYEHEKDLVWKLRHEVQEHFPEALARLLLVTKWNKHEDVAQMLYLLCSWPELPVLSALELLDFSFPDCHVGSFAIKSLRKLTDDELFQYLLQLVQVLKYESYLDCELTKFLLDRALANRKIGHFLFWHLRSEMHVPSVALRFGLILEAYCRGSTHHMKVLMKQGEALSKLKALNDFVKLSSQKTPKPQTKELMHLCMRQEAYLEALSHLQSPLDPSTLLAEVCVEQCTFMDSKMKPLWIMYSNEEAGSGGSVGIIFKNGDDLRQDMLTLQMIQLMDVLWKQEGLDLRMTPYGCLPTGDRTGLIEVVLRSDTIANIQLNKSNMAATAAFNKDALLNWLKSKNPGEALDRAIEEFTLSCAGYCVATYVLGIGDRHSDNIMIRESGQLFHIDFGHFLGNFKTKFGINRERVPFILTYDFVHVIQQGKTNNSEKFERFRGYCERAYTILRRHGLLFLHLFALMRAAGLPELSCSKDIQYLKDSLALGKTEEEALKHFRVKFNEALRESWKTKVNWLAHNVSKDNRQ
T1 sequence (P27986 whole entry partner, species assumed): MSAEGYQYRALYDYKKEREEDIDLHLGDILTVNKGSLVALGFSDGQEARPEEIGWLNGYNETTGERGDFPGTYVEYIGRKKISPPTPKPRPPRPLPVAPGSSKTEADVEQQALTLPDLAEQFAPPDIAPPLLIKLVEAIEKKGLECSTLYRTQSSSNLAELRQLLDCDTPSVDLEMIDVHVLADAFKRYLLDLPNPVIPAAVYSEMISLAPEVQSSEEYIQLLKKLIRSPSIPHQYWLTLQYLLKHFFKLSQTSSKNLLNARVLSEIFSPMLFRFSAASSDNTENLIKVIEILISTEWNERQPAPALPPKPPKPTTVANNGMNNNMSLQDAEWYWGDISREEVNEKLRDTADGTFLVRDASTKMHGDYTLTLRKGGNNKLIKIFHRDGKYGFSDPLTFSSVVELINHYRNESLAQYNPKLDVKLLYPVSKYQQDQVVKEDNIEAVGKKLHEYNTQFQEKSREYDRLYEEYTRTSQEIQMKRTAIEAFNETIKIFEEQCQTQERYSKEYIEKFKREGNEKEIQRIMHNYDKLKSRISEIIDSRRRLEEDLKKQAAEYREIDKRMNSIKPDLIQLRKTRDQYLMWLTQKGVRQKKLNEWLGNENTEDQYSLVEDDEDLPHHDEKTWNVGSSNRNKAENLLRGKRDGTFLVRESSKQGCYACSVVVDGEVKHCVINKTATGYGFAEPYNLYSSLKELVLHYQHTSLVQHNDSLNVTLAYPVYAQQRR
T2 sequence (P42336 whole entry, species assumed): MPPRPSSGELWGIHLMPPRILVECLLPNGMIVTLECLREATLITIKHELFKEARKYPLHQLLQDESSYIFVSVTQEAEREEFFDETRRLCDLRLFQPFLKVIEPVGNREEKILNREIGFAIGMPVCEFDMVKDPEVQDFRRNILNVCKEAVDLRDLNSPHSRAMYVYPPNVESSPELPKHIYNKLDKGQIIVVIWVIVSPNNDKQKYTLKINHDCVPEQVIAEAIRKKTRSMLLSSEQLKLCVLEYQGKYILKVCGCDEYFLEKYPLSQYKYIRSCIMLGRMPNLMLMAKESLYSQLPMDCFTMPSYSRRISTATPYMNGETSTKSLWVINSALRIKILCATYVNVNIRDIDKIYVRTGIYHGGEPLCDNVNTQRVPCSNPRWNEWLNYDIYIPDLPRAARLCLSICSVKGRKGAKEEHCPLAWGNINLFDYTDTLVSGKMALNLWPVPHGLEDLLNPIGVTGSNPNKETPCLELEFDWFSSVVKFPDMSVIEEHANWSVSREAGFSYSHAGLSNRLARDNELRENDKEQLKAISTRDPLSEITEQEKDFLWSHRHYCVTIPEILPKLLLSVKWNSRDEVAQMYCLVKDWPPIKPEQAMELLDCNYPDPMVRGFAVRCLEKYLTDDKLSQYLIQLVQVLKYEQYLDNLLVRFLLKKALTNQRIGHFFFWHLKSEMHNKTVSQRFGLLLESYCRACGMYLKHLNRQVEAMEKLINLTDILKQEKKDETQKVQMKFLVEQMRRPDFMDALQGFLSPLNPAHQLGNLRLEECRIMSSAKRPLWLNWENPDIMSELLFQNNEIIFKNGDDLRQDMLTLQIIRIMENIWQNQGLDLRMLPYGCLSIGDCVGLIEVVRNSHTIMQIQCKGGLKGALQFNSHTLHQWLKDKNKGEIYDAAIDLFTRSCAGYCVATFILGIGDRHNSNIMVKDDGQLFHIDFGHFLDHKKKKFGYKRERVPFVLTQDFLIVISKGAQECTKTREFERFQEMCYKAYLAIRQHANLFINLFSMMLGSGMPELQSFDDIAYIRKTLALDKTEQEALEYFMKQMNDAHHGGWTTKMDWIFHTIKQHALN
T2 sequence (P27986 whole entry partner, species assumed): as the sequence (P27986 whole entry partner, species assumed) above
p110β, sequence (P42338 whole entry, species assumed): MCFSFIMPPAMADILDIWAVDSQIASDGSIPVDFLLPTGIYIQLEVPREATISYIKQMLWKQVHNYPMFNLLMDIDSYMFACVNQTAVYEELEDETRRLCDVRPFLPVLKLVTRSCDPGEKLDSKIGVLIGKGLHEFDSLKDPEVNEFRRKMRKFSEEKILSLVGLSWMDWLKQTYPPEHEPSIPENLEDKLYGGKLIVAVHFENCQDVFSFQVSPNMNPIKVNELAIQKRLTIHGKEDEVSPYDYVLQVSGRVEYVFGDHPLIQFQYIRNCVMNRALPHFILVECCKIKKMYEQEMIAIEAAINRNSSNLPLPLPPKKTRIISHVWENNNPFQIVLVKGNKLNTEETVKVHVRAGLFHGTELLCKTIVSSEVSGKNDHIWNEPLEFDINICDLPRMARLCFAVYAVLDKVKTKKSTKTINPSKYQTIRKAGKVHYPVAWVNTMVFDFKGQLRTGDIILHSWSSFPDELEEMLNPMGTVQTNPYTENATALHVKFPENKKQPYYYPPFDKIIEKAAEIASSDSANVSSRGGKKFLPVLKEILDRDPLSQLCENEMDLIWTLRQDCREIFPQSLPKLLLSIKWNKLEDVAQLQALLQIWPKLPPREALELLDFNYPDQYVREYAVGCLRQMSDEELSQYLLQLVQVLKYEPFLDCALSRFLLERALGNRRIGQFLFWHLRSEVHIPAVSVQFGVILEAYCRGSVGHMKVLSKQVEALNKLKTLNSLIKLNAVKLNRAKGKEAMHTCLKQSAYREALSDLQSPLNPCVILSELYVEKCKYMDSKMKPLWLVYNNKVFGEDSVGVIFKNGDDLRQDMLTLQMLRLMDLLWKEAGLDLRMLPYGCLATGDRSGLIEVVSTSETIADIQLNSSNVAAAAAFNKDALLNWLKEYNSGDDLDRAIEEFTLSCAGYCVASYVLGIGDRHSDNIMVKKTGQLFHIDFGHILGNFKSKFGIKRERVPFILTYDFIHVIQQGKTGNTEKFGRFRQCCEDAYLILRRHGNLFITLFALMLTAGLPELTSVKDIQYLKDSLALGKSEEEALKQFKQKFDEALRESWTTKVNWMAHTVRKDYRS
p110β, sequence (P27986 whole entry partner, species assumed): as the sequence (P27986 whole entry partner, species assumed) above
T3 sequence (P48736 whole entry, species assumed): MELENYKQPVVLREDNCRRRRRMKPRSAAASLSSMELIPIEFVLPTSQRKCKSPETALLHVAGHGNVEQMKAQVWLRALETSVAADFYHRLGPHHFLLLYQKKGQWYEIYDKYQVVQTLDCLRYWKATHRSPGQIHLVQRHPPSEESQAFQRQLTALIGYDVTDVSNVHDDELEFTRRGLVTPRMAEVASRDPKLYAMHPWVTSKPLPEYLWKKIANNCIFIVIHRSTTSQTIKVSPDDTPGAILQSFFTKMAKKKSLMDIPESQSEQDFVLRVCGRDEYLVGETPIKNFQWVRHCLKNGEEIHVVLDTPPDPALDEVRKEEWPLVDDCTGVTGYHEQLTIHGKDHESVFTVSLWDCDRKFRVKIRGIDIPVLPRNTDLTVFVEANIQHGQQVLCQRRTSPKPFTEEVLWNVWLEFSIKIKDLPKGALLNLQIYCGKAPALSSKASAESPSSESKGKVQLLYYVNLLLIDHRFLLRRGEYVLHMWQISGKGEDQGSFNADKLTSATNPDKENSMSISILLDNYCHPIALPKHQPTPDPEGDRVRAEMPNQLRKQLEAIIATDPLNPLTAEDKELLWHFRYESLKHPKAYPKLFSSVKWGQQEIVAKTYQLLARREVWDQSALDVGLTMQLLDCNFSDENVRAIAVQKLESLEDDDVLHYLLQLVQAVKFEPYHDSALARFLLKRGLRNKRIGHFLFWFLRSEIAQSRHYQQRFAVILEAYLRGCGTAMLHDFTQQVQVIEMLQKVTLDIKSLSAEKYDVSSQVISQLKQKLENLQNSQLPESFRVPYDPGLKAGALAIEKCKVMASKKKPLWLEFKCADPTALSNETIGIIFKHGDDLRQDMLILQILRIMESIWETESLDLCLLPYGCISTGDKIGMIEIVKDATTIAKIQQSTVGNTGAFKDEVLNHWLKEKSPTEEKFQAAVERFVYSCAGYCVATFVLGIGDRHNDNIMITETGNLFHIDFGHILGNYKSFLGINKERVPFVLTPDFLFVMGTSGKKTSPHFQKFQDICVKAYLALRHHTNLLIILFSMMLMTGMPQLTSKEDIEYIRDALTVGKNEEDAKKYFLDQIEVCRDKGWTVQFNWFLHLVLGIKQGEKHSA

CC#C[C@]1(O)CC[C@H]2[C@@H]3CCC4=CC(=O)CCC4=C3[C@@H](c3ccc(N(C)C)cc3)C[C@@]21C [RU-486]
Effect on reduced spontaneous apoptosis of neutrophils from exacerbating COPD patients [1]: lack of effect

Cc1ccccc1-n1c(Cn2cnc3c(N)ncnc32)nc2cccc(C)c2c1=O [IC87114]
Effect on rhGM-CSF-mediated human neutrophil survival [2, 17]: failed to abrogate GM-CSF mediated survival

COC[C@H]1OC(=O)c2coc3c2[C@@]1(C)C1=C(C3=O)[C@@H]2CCC(=O)[C@@]2(C)C[C@H]1OC(C)=O [Wortmannin]
Effect on rhGM-CSF-mediated human neutrophil survival ([2]; inhibitor 100 nM, replenished during culture): blocked the anti-apoptotic effect of GM-CSF, although less completely than 10 µM LY294002
Effect on GM-CSF-induced PKB phosphorylation [3]: abolished

O=c1cc(N2CCOCC2)oc2c(-c3ccccc3)cccc12 [LY294002]
Effect on rhGM-CSF-mediated human neutrophil survival ([2]; inhibitor 10 µM): prevented rhGM-CSF-mediated human neutrophil survival
Effect on constitutive human neutrophil apoptosis [4]: without affecting the extent of constitutive neutrophil apoptosis
Cytoplasmic vacuolation of human neutrophils [5]: not apparent
Vacuole formation or necrosis in murine neutrophils [6]: nor did it induce vacuole formation or necrosis
Concentration giving maximal effect on rmGM-CSF survival effect [6, 18]: 10 µM
Effect on rmGM-CSF cytoprotective (survival) effect in murine neutrophils [6, 19]: abrogated the rmGM-CSF cytoprotective effect
Effect on constitutive murine neutrophil apoptosis [6]: had no effect on the rate of constitutive murine neutrophil apoptosis
Effect on reduced spontaneous apoptosis of neutrophils from exacerbating COPD patients [1]: failed to restore the ability of exacerbating patient-derived neutrophils to undergo apoptosis in a timely fashion
Effect on GM-CSF-induced PKB phosphorylation [3]: abolished

Cc1cc(NC(=O)CCNC(=O)Nc2nc(C)c(-c3ccc(-n4cccn4)cc3)s2)no1 [NVS-PI3-3]
IC50 [7]: 600 nM
IC50 [8]: 3 nM
Effect on rhGM-CSF-mediated human neutrophil survival [2, 20]: failed to affect GM-CSF-mediated survival
IC50 [9]: 180 nM
IC50 [10]: 310 nM
IC50 [11, 21]: 525 nM
IC50 [11, 22]: 44 nM

Oc1cccc(-c2nc(N3CCOCC3)c3oc4ncccc4c3n2)c1 [PI-103]
Cell accessibility [12]: PI-103 (pan class I) ^*
IC50 against all PI3K Class I isoforms [13]: submicromolar range
Effect on rhGM-CSF-mediated human neutrophil survival ([2]; inhibitor 10 µM): did indeed appear to inhibit the effects of rhGM-CSF on neutrophil apoptosis
Morphological assessment of apoptosis in neutrophils treated with rhGM-CSF and inhibitor ([5]; PI-103 10 µM): did not reveal classical apoptotic morphology
Cytoplasmic vacuolation of human neutrophils [5]: extensive cytoplasmic vacuolation was seen
Vacuole formation or necrosis in murine neutrophils [6]: did not exhibit significant vacuolation
Concentration giving maximal effect on rmGM-CSF survival effect [6, 18]: 3 µM
Effect on rmGM-CSF cytoprotective (survival) effect in murine neutrophils [6, 19]: blocked the rmGM-CSF survival effect
Effect on rmGM-CSF-induced survival, wild type neutrophils ([6]; PI-103 0.3 µM, C57BL/6, rmGM-CSF 0.1 ng/ml, 8 hours): had no effect on rmGM-CSF-induced survival of wild type neutrophils
Effect on rmGM-CSF-induced survival, p110γKO and p110δKOγKO neutrophils ([6]; PI-103 0.3 µM, rmGM-CSF 0.1 ng/ml, 8 hours): attenuated the rmGM-CSF survival effect
Effect on constitutive murine neutrophil apoptosis [6]: did not affect constitutive apoptosis
Effect on GM-CSF-induced PKB phosphorylation [3]: abolished

O=c1[nH]c2ccccc2n1C1CCN(Cc2ccc(-c3nc4cc5nc[nH]c5cc4nc3-c3ccccc3)cc2)CC1 [AKT-i1/2]
Effect on GM-CSF-mediated neutrophil survival ([5]; increasing concentrations, morphology): suppresses GM-CSF-mediated neutrophil survival

CC(=O)c1ccc(-c2sc(NC(=O)NCCC(=O)NC(C)(C)C)nc2C)cc1 [NVS-PI3-4]
IC50 [7]: 250 nM
IC50 [8]: 750 nM
Effect on rhGM-CSF-mediated human neutrophil survival [2, 20]: failed to affect GM-CSF-mediated survival
IC50 [9]: 1800 nM
IC50 [11, 21]: 4000 nM
IC50 [11, 22]: 710 nM

rhGM-CSF: Recombinant human granulocyte-macrophage colony stimulating factor, obtained from R&D Systems
Effect of GM-CSF on human neutrophil apoptosis ([2]; 6–24 h): delays human neutrophil apopotosis
Effect of rhGM-CSF on survival of neutrophils from exacerbating COPD patients ([1]; 10 ng/ml): caused a fully PI3K-dependent additional survival effect

Cc1cc(C(C)Nc2ccccc2C(=O)O)c2nc(N3CCOCC3)cc(=O)n2c1 (stereo not drawn) [HBC-417]
Effect on rhGM-CSF-mediated human neutrophil survival [2, 20]: failed to affect GM-CSF-mediated survival

O=C1NC(=O)/C(=C\c2ccc3nccnc3c2)S1 [AS605240]
Cell accessibility [12]: AS605240 (γ) ^*
Effect on rhGM-CSF-mediated human neutrophil survival [2, 17]: failed to abrogate GM-CSF mediated survival

Cc1cc(C(C)Nc2ccccc2)c2nc(N3CCOCC3)cc(=O)n2c1 (stereo not drawn) [TGX-221]
Effect on rhGM-CSF-mediated human neutrophil survival ([2]; inhibitor 10 µM): failed to abrogate GM-CSF mediated survival
IC50 [14]: 5000 nM
IC50 [15]: 100 nM
IC50 [16]: 3500 nM

NC(=O)[C@@H]1CCCN1C(=O)Nc1nc2ccc(-c3cnc(N)c(C(F)(F)F)c3)cc2s1 [NVS-PI3-2]
Effect on rhGM-CSF-mediated human neutrophil survival [2, 20]: failed to affect GM-CSF-mediated survival

B1: rmGM-CSF: Recombinant mouse granulocyte-macrophage colony stimulating factor, purchased from Peprotech (protein, UniProt P01587 18-141, looked up)
Granulocyte-macrophage …: APTRSPITVTRPWKHVEAIKEALNLLDDMPVTLNEEVEVVSNEFSFKKLTCVQTRLKIFEQGLRGNFTKLKGALNMTASYYQTYCPPTPETDCETQVTTYADFIDSLKTFLTDIPFECKKPGQK
EC50 for delay of murine neutrophil apoptosis ([6]; C57BL/6 peripheral blood neutrophils, 8 hour, AnV/PI flow cytometry): 0.0075 ng/mL
Effect on murine neutrophil apoptosis ([6]; concentration-dependent, all time points studied (0–12 h)): significantly delayed
